Results as given in EP1140984B1, “SELECTIVE INHIBITORS OF MMP-12” (Aventis Pharmaceuticals Inc., priority 1998, dated 2000).
Where a name gives a salt, the structure may show the parent alone.

Columns and labels:
MMP-2 = molecular target: T1, MMP-2 (Homo sapiens, UniProt P08253); test: Determination of inhibition constant (Ki) for MMP-2, fluorogenic substrate assay; type: biochemical; details: substrate Mca-Pro-Leu-Gly-Leu-Dpa-Ala-Arg-NH2, 37°C, pH 7.6, [S] = 1 µM, [MMP-2] = 0.4 nM
T1 construct: made in house; host or cells: Pichia pastoris (strains KM71 / SMD1168, clone 24S; vector pHIL-D2)
T1 sequence (P08253 110-660): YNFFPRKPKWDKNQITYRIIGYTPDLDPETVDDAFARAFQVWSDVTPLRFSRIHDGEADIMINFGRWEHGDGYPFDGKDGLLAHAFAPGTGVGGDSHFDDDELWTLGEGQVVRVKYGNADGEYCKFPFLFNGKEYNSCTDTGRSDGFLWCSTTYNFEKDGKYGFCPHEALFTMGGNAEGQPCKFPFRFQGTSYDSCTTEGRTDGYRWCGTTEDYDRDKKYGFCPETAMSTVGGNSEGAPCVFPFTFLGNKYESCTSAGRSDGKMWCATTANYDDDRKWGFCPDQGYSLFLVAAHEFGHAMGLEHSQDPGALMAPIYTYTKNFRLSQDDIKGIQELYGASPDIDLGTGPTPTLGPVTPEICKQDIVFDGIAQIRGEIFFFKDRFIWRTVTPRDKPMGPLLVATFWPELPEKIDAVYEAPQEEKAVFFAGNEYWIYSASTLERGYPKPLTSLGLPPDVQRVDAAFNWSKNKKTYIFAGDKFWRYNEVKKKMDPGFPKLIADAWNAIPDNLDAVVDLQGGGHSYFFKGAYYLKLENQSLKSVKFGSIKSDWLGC
Source text: Recombinant MMP-2 was purified from the fermentation broth of yeast Pichia pastoris that carries the integrated MMP-2 gene into its chromosome. In brief, the full-length cDNA for MMP-2 was obtained by reverse transcription of RNA from human melanoma A375M cell line by the reverse transcriptase polymerase chain reaction (RT-PCR) using sequence specific oligonucleotides. The nucleotide sequence was confirmed by Taq cycle sequencing. The cDNA was ligated into the Pichia pastoris expression vector pHIL-D2 in such a way that the expression of pro-MMP-2 is under the control of the methanol inducible alcohol oxidase promoter. The expression construct was digested with either SalI or NsiI and used to transform the Pichia pastoris strains KM71 and SMD1168. A large-scale culture of a selected clone designated 24S was performed in a high cell density fermentor and the recombinant MMP-2 was purified from the culture supernatant by gelatin-sepharose 4B (Pharmacia). The enzyme is sufficiently pure at this stage for routine measurement of inhibition. If desired, however, the enzyme may be further purified by AcA 44 gel filtration (Spectra).
The active MMP-2 was obtained by activation of proMMP-2 at 37°C for 1 h with 4-aminophenylmercuric acetate which was then removed by a Sephadex G-50 spin column. The enzyme is assayed using a fluorogenic substrate, Mca-Pro-Leu-Gly-Leu-Dpa-Ala-Arg-NH2, at 37°C in 2.0 mL of assay buffer containing 50 mM Tris, pH 7.6, 0.2 M sodium chloride, 50 mM calcium chloride, 0.02% Brij-35, and 50 µM β-mercaptoethanol. The increase in fluorescence is monitored (λex 328 nm, λem 393 nm). Substrate and inhibitor stock solutions are made in DMF. The enzyme is added at the last to start the reaction. For routine measurement of a Ki value for a reversible, competitive inhibitor, the initial rates in the presence of at least four inhibitor concentrations (two inhibitor concentrations above Ki and two below Ki) are measured using [S] = 1 µM (<<Km) and [MMP-2] = 0.4 nM. Under these conditions, the measured Ki, app is close to true Ki.

MMP-3 = molecular target: T2, MMP-3 (Homo sapiens, UniProt P08254); test: Determination of inhibition constant (Ki) for MMP-3, fluorogenic substrate assay; type: biochemical; details: substrate Mca-Pro-Leu-Gly-Leu-Dpa-Ala-Arg-NH2, 37°C, pH 7.6, [S] = 1 µM, [MMP-3] = 1 nM
T2 construct: The active MMP-3 was obtained by treatment of proMMP-3 with trypsin; endogenous in cells; host or cells: human rheumatoid synovial fibroblasts stimulated with macrophage-conditioned medium
Experimental: ProMMP-3 (EC 3.4.24.17; Stromelysin-1) was purified from culture medium of human rheumatoid synovial fibroblasts stimulated with macrophage-conditioned medium according to Okada, Y. et al., J. Biol. Chem. 261, 14245-14255 (1986). The active MMP-3 was obtained by treatment of proMMP-3 with trypsin (5 µg/mL) at 37°C for 30 minutes, followed by addition of soybean trypsin inhibitor (50 µg/mL). Aliquots of the activated MMP-3 were stored at -20°C.
The activated MMP-3 is assayed using a fluorogenic substrate, Mca-Pro-Leu-Gly-Leu-Dpa-Ala-Arg-NH2, Knight, C.G. et al., FEBS Lett. 296, 263-266 (1992), at 37°C in an assay buffer containing 50 mM Tris, pH 7.6, 0.2 M sodium chloride, 50 mM calcium chloride, and 0.02% Brij-35. The increase in fluorescence due to cleavage of Gly-Leu peptide bond by MMP-3 was monitored with Perkin-Elmer LS50B Fluorimeter (λex 328 nm, λem 393 nm, excitation slit 2.5, emission slit 10). Substrate and inhibitor stock solutions were made in DMF and 0.1% HCI-DMF, respectively. For determination of Ki values for MMP-3 inhibitors, a series of intermediate inhibitor solutions were prepared in 0.1% HCl-DMF and 1 or 2 µL of the diluted inhibitor solution was mixed with 1 µL of 2 mM substrate solution in DMF in a quartz cuvette containing 2 mL of assay buffer. The enzyme (10 µL of 0.2 µM MMP-3 dilution in assay buffer) was added at the last to start the reaction. For routine measurement of a Ki value for a reversible, competitive inhibitor, the initial rates in the presence of at least four inhibitor concentrations (two concentrations above Ki and two concentrations below Ki) were measured using [S] = 1 µM (<< Km) and [MMP-3] = 1 nM. Under these conditions, the measured Ki, app is close to true Ki.
The Ki for a competitive inhibitor is calculated using: v0/vi = (1 + [I]/Ki, app) and Ki = Ki, app/(1 + [S]/Km), where v0 is the initial rate in the absence of inhibitor, vi is the initial rate in the presence of inhibitor at the concentration of [I], [S] is the substrate concentration, and Km is the Michaelis constant. If slow binding is observed (i.e. if the approach to the binding equilibrium is slow), the final steady-state rate rather than the initial rate is taken as vi.

T2 sequence (P08254 100-477): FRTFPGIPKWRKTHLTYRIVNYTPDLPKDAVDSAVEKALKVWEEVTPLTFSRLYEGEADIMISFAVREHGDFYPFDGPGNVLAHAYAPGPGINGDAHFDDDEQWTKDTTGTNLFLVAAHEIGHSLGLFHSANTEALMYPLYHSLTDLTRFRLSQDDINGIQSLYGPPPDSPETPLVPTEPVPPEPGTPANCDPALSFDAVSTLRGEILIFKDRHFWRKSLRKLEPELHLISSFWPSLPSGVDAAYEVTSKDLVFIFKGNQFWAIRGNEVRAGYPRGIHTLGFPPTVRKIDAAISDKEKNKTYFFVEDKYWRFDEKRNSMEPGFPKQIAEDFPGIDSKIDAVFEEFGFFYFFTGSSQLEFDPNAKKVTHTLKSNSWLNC

Structure (SMILES) | Ki (MMP-2) | Ki (MMP-3)
CC(C)C[C@H](NC(=O)C(S)C(C)C)C(=O)N[C@@H](Cc1ccccc1)C(=O)O (stereo in doubt) [Example 3, (S)-2-Mercapto-3-methylbutyroyl-(L)-leucyl-(L)-phenylalanine] | 784 nM | 1410 nM
CSCC[C@H](NC(=O)C(S)C(C)C)C(=O)N[C@@H](Cc1ccccc1)C(=O)O (stereo in doubt) [Example 4, (S)-2-Mercapto-3-methylbutyroyl-(L)-methionyl-(L)-phenylalanine] | 798 nM | 449 nM
CC(C)C(S)C(=O)N[C@@H](CCCCN)C(=O)N[C@@H](Cc1ccccc1)C(=O)O (stereo in doubt) [Example 5, (S)-2-Mercapto-3-methylbutyroyl-(L)-lysyl-(L)-phenylalanine trifluoroacetic acid salt] | 1740 nM | 1550 nM
CCCC(S)C(=O)N[C@@H](CCc1ccccc1)C(=O)N[C@@H](Cc1ccccc1)C(=O)O (stereo partly shown) [Example 1, 2-Mercapto-pentanoyl-(L)-homo-phenylalanyl-(L)-phenylalanine] | 1800 nM | 750 nM
CC(C)[C@H](S)C(=O)N[C@@H](CCc1ccccc1)C(=O)N[C@@H](Cc1ccccc1)C(=O)O [Example 2, (S)-2-Mercapto-3-methylbutyroyl-(L)-homo-phenylalanyl-(L)-phenylalanine] | 731 nM | 365 nM
CCCC(S)C(=O)N[C@@H](CCc1ccccc1)C(=O)N[C@@H](Cc1ccccc1)C(=O)NC (stereo partly drawn) [Example 6, (S)-2-Mercaptopentanoyl-(L)-homo-phenylalanyl-(L)-phenylalanine N-methyl amide] |  | 14 nM
CNC(=O)[C@H](Cc1ccccc1)NC(=O)[C@H](CCc1ccccc1)NC(=O)[C@@H](S)C(C)C [Example 7, (S)-2-Mercapto-3-methylbutyroyl-(L)-homo-phenylalanyl-(L)-phenylalanine N-methyl amide] | 3.3 nM | 10 nM
